Results reported in article PMC6627486, “Ipomoeassin F Binds Sec61α to Inhibit Protein Translocation” (Journal of the American Chemical Society, 2019).

Experiments:
[1] = test system: MDA-MB-231, MCF7, MCF-10A; experiment: Cytotoxicity relative to ipomoeassin F across the cell lines of Table 1; type: cell-based, human; details: depending on the cell type (Table 1)
Protocol: Two human breast cancer cell lines (MDA-MB-231 and MCF7) and one human breast non-tumorigenic epithelial cell line (MCF-10A) were maintained in a DMEM high glucose culture medium supplemented with 10% fetal bovine serum (FBS) and 2 mM L-glutamine. The cells were grown in a humidified atmosphere of 5% CO2 and 95% air at 37 °C . The culture medi um w as changed every 2–4 days depending on cell density. Cell cultures were passaged once a week using 0.125% trypsin-EDTA to detach the cells from culture flasks/dishes.
The human colorectal cancer cell line HCT116 was maintained in McCoy’s 5A (modified) medium supplemented with 10% fetal bovine serum (FBS). […]
Viable cells were counted with a hemocytometer immediately before each experiment. […] Absorbance of formazan was detected by a microplate reader (BioTek Synergy H1) at 570 nm with 650 nm as the reference wavelength. The percentage of viability compared to the negative control (DMSO-treated cells) was determined . […]
MDA-MB-231, MCF-10A and HCT116. Viable cells were counted with a hemocytometer immediately before each experiment . […] Emission of each well at 620 nm was detected by a microplate reader (BioTek Synergy H1) at excitation 580 nm. […] Cells were treated for 96 h, then viability measured with AlamarBlue, detected using the conditions described but with a BMG Fluostar Optima Microplate Reader. […]

[2] = test system: HCT116; experiment: cells; type: cell-based; details: Homo sapiens, HCT-116; HCT116, 72 h, Alamar Blue, assayed separately; read-out: Cytotoxicity (IC50)
Protocol: AlamarBlue Cytotoxicity Assay
MDA-MB-231, MCF-10A and HCT116. Viable cells were counted with a hemocytometer immediately before each experiment . Experiments were done in triplicate. First, 100 μL of MDA-MB-231 cells or MCF-10A cells at the density of 50,000 cells/mL was seeded in a 96-well plate (5,000 cells/well) and then incubated at 37 °C and 5% CO2 for 24 h. The compounds were dissolved in DMSO (dimethyl sulfoxide) to make drug stocks (10 mM). The stock solutions were diluted with the complete DMEM high glucose culture medium to make a series of gradient fresh working solutions right before each test. Subsequently, the cells were treated with 100 μL of the freshly made gradient working solution in a total volume of 200 μL/well for 72 h. After that, the media were discarded and 200 μL of the fresh complete medium containing 10% of AlamarBlue (resazurin) stock solution was added to each well. The plate was then incubated at 37 °C and 5% CO2 for another 3 h. Emission of each well at 620 nm was detected by a microplate reader (BioTek Synergy H1) at excitation 580 nm. For HCT116 WT and mutant lines, cells were seeded at 1000 cells/ well in complete McCoys medium. Compounds were diluted from a DMSO stock into culture medium as described above. Cells were treated for 96 h, then viability measured with AlamarBlue, detected using the conditions described but with a BMG Fluostar Optima Microplate Reader. The percentage of viability compared to the negative control (DMSO-treated cells) was determined. […]
HCT116 and HEK293T. Viable cells were counted using an automated cell counter (BioRad TC20) before each experiment. […] Emission of each well at 620 nm was detected by a microplate reader (Perkin Elmer EnSpire) at excitation 580 nm. The percentage of viability compared to the negative control (DMSO -treated cells) was determined. […]
Figure S1. […] (C) HCT116 colon carcinoma cells were treated with increasing concentrations of analogues 8, 14, 15, CT8, ipomoeassin F or carrier (0.1% DMSO) and cell viability was assessed at 72 h by the Alamar Blue assay (mean ± S.D., n = 4). […]

In the case of C/C=C(\C)C(=O)O[C@H]1[C@H](OC(=O)/C=C/c2ccc(OCc3cn(CCOCCOCCOCCNC(=O)CCCC[C@@H]4SC[C@@H]5NC(=O)N[C@@H]54)nn3)cc2)[C@@H](O)[C@@H]2O[C@H]3[C@H](O[C@@H](CCCCC)CCCCCCC(=O)CCC(=O)OC[C@H]1O2)O[C@H](C)[C@H](OC(C)=O)[C@@H]3O [compound 5], the “decrease in potency versus ipomoeassin F” value [1] is reported as about 5 fold.
C/C=C(\C)C(=O)O[C@@H]1[C@@H](O)[C@@H]2O[C@H]3[C@H](O[C@@H](CCCCC)CCCCCCC(=O)CCC(=O)OC[C@@H](O2)[C@H]1OC(=O)/C=C/c1ccccc1)O[C@H](C)[C@H](OC(C)=O)[C@@H]3O [ipomoeassin F] gave an IC50 [2] of 8 nM.
